Columns and labels:
cocaine dependence = settings: orally administered, patients; cited from earlier work
[1] = system: GluR-mediated miniature excitatory postsynaptic currents (mEPSCs) in hippocampal neurons; assay: mEPSCs in cultured rat hippocampal neurons, whole-cell patch clamp (normoxia); assay type: cell-based; settings: for effect on GluR-mediated mEPSCs: cultured hippocampal neurons, normoxia, in presence of MK-801
Parkinson's disease = settings: oral administration, patients; cited from earlier work
[2] = versus 55-60 μM in healthy patients; cited from earlier work

SMILES: N[C@@H](Cc1ccc(O)cc1)C(=O)O [tyrosine]
- clinical benefit in cocaine dependence (cocaine dependence): did not confer a benefit

SMILES: N[C@@H](Cc1c[nH]c2ccccc12)C(=O)O [L-Trp, L-Tryptophan]
- effect on GluR-mediated mEPSCs [1]: significantly and reversibly attenuate

SMILES: N[C@H](Cc1ccccc1)C(=O)O [D-phenylalanine]
- clinical benefit in Parkinson's disease (Parkinson's disease): conferred some benefit

SMILES: N[C@@H](Cc1ccc(O)cc1)C(=O)O [L-Tyr, L-tyrosine]
- effect on GluR-mediated mEPSCs [1]: significantly and reversibly attenuate

SMILES: N[C@@H](Cc1ccccc1)C(=O)O [L-Phe, L-phenylalanine]
- effect on frequency of mEPSCs (concentration-dependence) ([1]; L-Phe 0.1-3 mM, normalized to control, 5 to 8 cells, P<0.01 compared to control): concentration-dependence of attenuation of the frequency of mEPSCs
- effect on GluR-mediated mEPSCs [1]: significantly and reversibly attenuate
- blood concentration of L-Phe causing phenylketonuria (PKU) [2]: > 1200 µM

From patent US6620850B2, “Materials and methods for treatment of neurological disorders involving overactivation of glutamatergic ionotropic receptors” (University of Florida, priority 2001, dated 2003)
